Data reported in patent publication US6063782A, “Pyrrolopyridazine derivatives” (Sankyo Company, Limited, priority 1994, dated 2000).

What follows are molecules tested on gastric acid secretion (assay: Gastric acid secretion activity test using pyloric ligation in rats (Shay rat method)). Conditions: male SD rats, 20 mg/kg injected into the duodenal region, 4 hours, result given in words only.
Assay type: in vivo
Procedure: Gastric acid secretion activity test using pyloric ligation in rats (Shay rat method)
Pyloric ligation was conducted based on the method of Shay et al. [Gastroenterology, 5, 43 (1945)]. Male rats of SD strain were fasted for 24 hours; their abdomens were sectioned during anesthesia under ether. The duodenal and pyloric regions were exposed and the latter was ligated. A solution of a test compound (10 mg/ml) prepared by use of 1.5w parts of dimethylacetamide, 68.5% parts of polyethyleneglycol (PEG-400) and 30% parts of physiological saline solution, was injected into the duodenal region for the dose to be 20 mg/kg by use of a 1-ml syringe and an injection needle (26G). After injection of the test compound, the abdominal region was sutured. The animals were allowed to a stand for 4 hours without feeding food and water and then sacrified with carbon dioxide gas. The stomach was excised and gastric juice was gathered. The gastric juice sample was centrifuged (4° C., 2500 rpm, 15 minutes). The amount of the supernatant was measured to be as the gastric secretion. The acidity of the gastric juice was determined by the amount (ml) of 0.01 N sodium hydroxide solution required for titration of 0.1 ml of the supernatant to pH 7.0 by use of-an auto-titrating apparatus. The value of gastric acid secretion was calculated from the value of gastric secretion and the acidity of gastric juice. The inhibiting rate was obtained from the values of gastric acid secretion of the control group and of the administered group.

Row | Compound | inhibiting rate of gastric acid secretion
1 | C=CCn1c(C)c(C)c2cnnc(OCc3ccccc3)c21 [Example 3, 7-Benzyloxy-2,3-dimethyl-1-(2-propenyl)pyrrolo[2,3-d]pyridazine] | excellent activity
2 | C=C(C)Cn1c(C)c(C)c2cnnc(OCc3ccc(F)cc3)c21 [Example 26, 7-(4-Fluorobenzyloxy)-2,3-dimethyl-1-(2-methyl-2-propenyl)pyrrolo[2,3-d]pyridazine] | excellent activity
3 | CC=CCn1c(C)c(C)c2cnnc(OCc3cccnc3)c21 [Example 32, 1-(2-Butenyl)-2,3-dimethyl-7-(3-pyridylmethyloxy)pyrrolo[2,3-d]pyridazine] | excellent activity
4 | C/C=C/Cn1c(CC)c(C)c2cnnc(OCc3ccc(F)cc3)c21 [Example 33, 1-(2-Butenyl)-2-ethyl-7-(4-fluorobenzyloxy)-3-methylpyrrolo[2,3-d]pyridazine] | excellent activity
5 | Cc1c(C)n(CC2CCCCC2)c2c(OCc3ccc(F)cc3)nncc12 [Example 37, 1-Cyclohexylmethyl-7-(4-fluorobenzyloxy)-2,3-dimethylpyrrolo[2,3-d]pyridazine] | excellent activity
6 | CC=CCn1c(C)c(C)c2cnnc(OCc3c(F)cccc3Cl)c21 [Example 40, 1-(2-Butenyl)-7-(2-chloro-6-fluorobenzyloxy)-2,3-dimethylpyrrolo[2,3-d]pyridazine] | excellent activity
7 | Cc1c(C)n(CC=C(Cl)Cl)c2c(OCc3ccccc3)nncc12 [Example 41, 7-Benzyloxy-1-(3,3-dichloro-2-propenyl)-2,3-dimethylpyrrolo[2,3-d]pyridazine] | excellent activity
8 | C#CCn1c(C)c(C)c2cnnc(OCc3ccccc3)c21 [Example 42, 7-Benzyloxy-2,3-dimethyl-1-(2-propynyl)pyrrolo[2,3-d]pyridazine] | excellent activity
9 | CC=CCn1c(C)c(C)c2cnnc(CCc3ccc(F)cc3)c21 [Example 62, 1-(2-Butenyl)-7-(4-fluorophenethyl)-2,3-dimethylpyrrolo[2,3-d]pyridazine] | excellent activity
10 | Cc1c(C)n(CC2CC2C)c2c(CCc3ccccc3)nncc12 (stereo not shown) [Example 68, 2,3-Dimethyl-1-(2-methylcyclopropylmethyl)-7-phenethylpyrrolo[2,3-d]pyridazine] | excellent activity

What follows are molecules tested on Helicobacter pylori strains 9470, 9472 and 9474 (assay: Antibacterial activity against Helicobacter pylori). Conditions: strains 9470, 9472 and 9474, 37° C., 3 days, slightly aerobic; result given in words only.
Assay type: cell-based
Procedure: Antibacterial activity against Helicobacter pylori The antibacterial activity of the compounds of the present invention were evaluated by measuring the minimum inhibitory concentration values (MIC) of the present compounds against Helicobacter pylori strains 9470, 9472 and 9474. These strains of Helicobacter pylori were incubated for 4 days on a plate medium. The medium was prepared by dissolving brain heart infusion agar (Product of DIFCO) in a defined amount of distilled water, by sterilization in an autoclave, injecting horse blood (Product of Nihon Seibutsu Zairyo Co.) into each plate for the medium to contain 7% of the blood and by solidifying. Under slightly aerobic conditions, Helicobacter pylori cultivated at 37° C. for 4 days was suspended in a physiological saline solution for its inocular size to be about 10^8 CFU/ml. The suspension was diluted 100 times, and about 10 μl of the diluted suspension was inoculated on a medium for MIC determination. The medium for MIC determination used had the same compounds as those for preculture. […] In a similar way to the preculture, Helicobacter pylori was cultivated at 37° C. for 3 days under slightly aerobic conditions. […] The minimum concentration which gave no bacterial growth was regarded as MIC of the compound of the present invention.

Row | Compound | minimum inhibitory concentration (MIC) against Helicobacter pylori
11 | CC(C)=CCn1c(C)c(C)c2cnnc(OCc3ccccc3)c21 [Example 2, 7-Benzyloxy-2,3-dimethyl-1-(3-methyl-2-butenyl)pyrrolo[2,3-d]pyridazine] | excellent antibacterial activity
12 | C=CCn1c(C)c(C)c2cnnc(OCc3ccccc3)c21 [Example 3, 7-Benzyloxy-2,3-dimethyl-1-(2-propenyl)pyrrolo[2,3-d]pyridazine] | excellent antibacterial activity
13 | Cc1c(C)n(C/C=C/c2ccccc2)c2c(OCc3ccccc3)nncc12 [Example 6, 7-Benzyloxy-2,3-dimethyl-1-(3-phenyl-2-propenyl)pyrrolo[2,3-d]pyridazine] | excellent antibacterial activity
14 | C=CCn1c(C)c(C)c2cnnc(OCc3cccc(F)c3)c21 [Example 8, 7-(3-Fluorobenzyloxy)-2,3-dimethyl-1-(2-propenyl)pyrrolo[2,3-d]pyridazine] | excellent antibacterial activity
15 | C=CCn1c(C)c(C)c2cnnc(OCc3ccccc3F)c21 [Example 10, 7-(2-Fluorobenzyloxy)-2,3-dimethyl-1-(2-propenyl)nvrrolo[2,3-d]pyridazine] | excellent antibacterial activity
16 | C=Cn1c(C)c(C)c2cnnc(OCc3ccccc3)c21 [Example 13, 7-Benzyloxy-2,3-dimethyl-1-vinylpyrrolo[2,3-d]pyridazine] | excellent antibacterial activity
17 | Cc1c(C)n(CC(F)(F)F)c2c(OCc3ccccc3)nncc12 [Example 15, 7-Benzyloxy-2,3-dimethyl-1-(2,2,2-trifluoroethyl)pyrrolo[2,3-d]pyridazine] | excellent antibacterial activity
18 | Cc1c(C)n(CCF)c2c(OCc3ccccc3)nncc12 [Example 18, 7-Benzyloxy-1-(2-fluoroethyl)-2,3-dimethylpyrrolo[2,3-d]pyridazine] | excellent antibacterial activity
19 | Cc1c(C)n(CCCF)c2c(OCc3ccccc3)nncc12 [Example 19, 7-Benzyloxy-1-(3-fluoropropyl)-2,3-dimethylpyrrolo[2,3-d]pyridazine] | excellent antibacterial activity
20 | Cc1c(C)n(CC(F)F)c2c(OCc3ccccc3)nncc12 [Example 20, 7-Benzyloxy-1-(2,2-difluoroethyl)-2,3-dimethylpyrrolo[2,3-d]pyridazine] | excellent antibacterial activity
21 | Cc1c(C)n(C2CCCCC2)c2c(OCc3ccccc3)nncc12 [Example 23, 7-Benzyloxy-1-cyclohexyl-2,3-dimethylpyrrolo[2,3-d]pyridazine] | excellent antibacterial activity
22 | Cc1c(C)n(C/C=C/c2ccccc2)c2c(OCc3ccc(F)cc3)nncc12 [Example 24, 7-(4-Fluorobenzyloxy)-2,3-dimethyl-1-(3-phenyl-2-propenyl)pyrrolo[2,3-d]pyridazine] | excellent antibacterial activity
23 | C=CCn1c(C)c(C)c2cnnc(OCc3ccc(C(F)(F)F)cc3)c21 [Example 25, 2,3-Dimethyl-1-(2-propenyl)-7-(4-trifluoromethylbenzyloxy)pyrrolo[2,3-d]pyridazine] | excellent antibacterial activity
24 | C=CCn1c(C)c(CC)c2cnnc(OCc3ccccc3)c21 [Example 27, 7-Benzyloxy-3-ethyl-2-methyl-1-(2-propenyl)-6pyrrolo[2,3-d]pyridazine] | excellent antibacterial activity
25 | C/C=C\Cn1c(C)c(C)c2cnnc(OCc3ccc(F)cc3)c21 [Example 29, 1-(2-Butenyl)-7-(4-fluorobenzyloxy)-2,3-dimethylpyrrolo[2,3-d]pyridazine] | excellent antibacterial activity
26 | C=CCn1c(C)c(C)c2cnnc(SCc3ccc(F)cc3)c21 [Example 34, 7-(4-Fluorobenzylthio)-2,3-dimethyl-1--(2-propenyl)ipyrrolo[2,3-d]pyridazine] | excellent antibacterial activity
27 | C=C=Cn1c(C)c(C)c2cnnc(OCc3ccccc3)c21 [Example 45, 7-Benzyloxy-2,3-dimethyl-1-(propane-1,2-dienyl)pyrrolo[2,3-d]pyridazine] | excellent antibacterial activity
28 | CC=CCn1c(C)c(C)c2cnnc(SCc3ccc(F)cc3)c21 [Example 50, 1-(2-Butenyl)-7-(4-fluorobenylthio)-2,3-dimethylpyrrolo[2,3-d]pyridazine] | excellent antibacterial activity
29 | CC=CCn1c(C)c(C)c2cnnc(SCc3ccc(F)cc3F)c21 [Example 51, 1-(2-Butenyl)-7-(2,4-difluorobenzylthio)-2,3-dimethylpyrrolo[2,3-d]pyridazine] | excellent antibacterial activity
30 | CC=CCn1c(C)c(C)c2cnnc(SCc3c(F)cccc3Cl)c21 [Example 52, 1-(2-Butenyl)-7-(2-chloro-6-fluorobenzylthio)-2,3-dimethylpyrrolo[2,3-d]pyridazine] | excellent antibacterial activity
31 | CC=CCn1c(C)c(CC)c2cnnc(OCc3ccc(F)cc3)c21 [Example 56, 1-(2-Butenyl)-3-ethyl-7-(4-fluorobenzyloxy)-2-methylpyrrolo[2,3-d]pyridazine] | excellent antibacterial activity
